From patent US20240173440A1, “HIGH PURITY COPPER RADIOPHARMACEUTICAL COMPOSITIONS AND DIAGNOSTIC AND THERAPEUTIC USES THEREOF” (Nuclidium AG, priority 2022, published 2024)

Experiments:
in vivo = conditions: iv, 20 umol, total radioactivity
Protocol: The tumors were allowed to grow for 1-3 weeks before commencement of the experiments.
The mice were randomly distributed in groups and euthanized at 1 and at 4 hours post-injection. The organs of interest were collected, rinsed, blotted, weighed and counted in a gamma counter. The results are expressed as percentage of injected activity per gram (% IA/g), representing the mean±standard deviation of n=4-8 mice per group and they were obtained by extrapolation from counts of an aliquot taken from the injected solution as standard.
The mice were randomly distributed in groups, injected with the radiotracer under investigation and euthanized at 1 and at 4 hours post-injection of the radiotracers under investigation. The organs of interest were collected, rinsed, blotted, weighed and counted in a gamma counter. The results are expressed as percentage of injected activity per gram (% IA/g), representing the mean±standard deviation of all mice per group and they were obtained by extrapolation from counts of an aliquot taken from the injected solution as standard.
The mice were randomly distributed in groups and euthanized at 4 hours post-injection. The organs of interest were collected, rinsed, blotted, weighed, and their respective radioactivity was counted in a gamma counter.

HEK-SST2 xenografts = experiment: PET/CT imaging in HEK-SST2 xenografted mice; type: in vivo; conditions: 0-60 min and 240 min
Protocol: Tumor xenografted mice were injected intravenously into the tail vein with the tested radiotracer. […] Mice were anesthetized with 1.5% isoflurane and dynamic PET scans were acquired during 1 hour upon injection of the radiotracer. The mice were euthanized by CO2 at 4 hours p.i., the bladder was mechanically emptied, and static PET scans were acquired for 30 min. PET images were acquired using the R-CUBE PET scanner system (MOLECUBES, Gent, Belgium) and they were decay corrected and reconstructed with the VivoQuant software version 4.0. The CT was imaged supine, headfirst, using the NanoSPECT/CT™ scanner (Bioscan Inc.). Topograms and helical CT scans of the whole mouse were first acquired using the following parameters: X-ray tube current: 177 μA, X-ray tube voltage 45 kVp, 90 seconds and 180 frames per rotation, pitch 1. CT images were reconstructed using CTReco (version r1.146), with a standard filtered back projection algorithm (exact cone beam) and post-filtered (RamLak, 100% frequency cut-off), resulting in a pixel size of 0.2 mm. Co-registered PET/CT images were visualized using maximum intensity projection (MIP) with InVivoScope (version 1.43, Bioscan Inc.). The results are presented in the Examples that follow.

SST2 [1] = target: T1, SST2 (Homo sapiens (Human), UniProt P30874); experiment: Saturation binding on HEK-SST2 cell membranes; conditions: 37° C.
T1 sequence (P30874 whole entry): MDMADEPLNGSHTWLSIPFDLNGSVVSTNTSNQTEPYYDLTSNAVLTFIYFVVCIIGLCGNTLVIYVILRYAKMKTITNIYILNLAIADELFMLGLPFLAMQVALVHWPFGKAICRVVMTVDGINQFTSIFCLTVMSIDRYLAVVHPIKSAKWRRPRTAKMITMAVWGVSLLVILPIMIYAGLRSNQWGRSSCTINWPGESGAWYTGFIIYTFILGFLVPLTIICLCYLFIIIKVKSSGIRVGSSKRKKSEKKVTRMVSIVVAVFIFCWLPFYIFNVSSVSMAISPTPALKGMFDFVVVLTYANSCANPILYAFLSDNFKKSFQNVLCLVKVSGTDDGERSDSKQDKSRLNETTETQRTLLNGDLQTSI
Protocol: Cell Membrane Preparation: HEK-SST2 cells were grown to confluence, mechanically disaggregated, washed with PBS (pH 7.4) and re-suspended in 20 mM of homogenization Tris buffer (pH 7.5) containing 1.3 mM EDTA, 0.25 M sucrose, 0.7 mM bacitracin, 5 μM soybean trypsin inhibitor, and 0.7 mM PMSF. The cells were homogenized using Ultra-Turrax, and the homogenized suspension was centrifuged at 500×g for 10 min at 4° C. The supernatant was collected in centrifuge tubes (Beckman Coulter Inc., Brea, CA, USA). This procedure was then repeated 5 times. The collected supernatant was centrifuged in an ultra-centrifuge (Beckman) at 4° C. for 55 min at 49,000×g. Then, the pellet was re-suspended in 10 mM ice-cold HEPES buffer (pH 7.5), aliquoted, and stored at −80° C. The protein concentration of those membrane suspensions was determined by the Bradford method, BSA as the standard.
Saturation Experiment: The association profiles of [^61Cu]Cu-NODAGA-LM3 was studied at different concentrations, ranging from 0.075 to 10 nM, in HEK-SST2 cell membranes at 37° C. Each assay tube contained 170 μL of binding buffer (20 mM HEPES, pH 7.4, containing 4 mM μgCl2, 0.2% BSA, 20 μg/L bacitracin, 20 μg/L PMSF and 200,000 KIU/L aprotinin). […] The dissociation constant (KD) and maximal binding capacity (Bmax) values were calculated using GraphPad Software Inc., Prism 7, San Diego, CA, USA (FIG. 37)

[2] = Lipophilicity, log D by shake-flask method (1-octanol/PBS pH 7.4); type: physicochemical; conditions: pH 7.4, shake-flask, Table 17, mean ± SD, read-out: log D(O/PBS pH 7.4)
In short: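 Radiotracer shaken 30 min in pre-saturated 1-octanol/PBS pH 7.4 (1:1), then centrifuged for phase separation. Radioactivity in each phase measured by gamma counting; log D reported as the average log of organic/PBS activity ratio.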

SST2 [3] = target: T1, SST2; experiment: Competitive binding assay (IC50) on HEK-SST2 cell membranes with 125I-Tyr-somatostatin-14; conditions: 1 hour at 37° C., radioligand [^125I]-Tyr-somatostatin-14 0.05 nM, mean ± SD
Protocol: Quantification of the free and bound radioligand was performed in a gamma-counter. The data were analyzed by GraphPad Prism 9 Software and the IC50 values were determined using the “log(inhibitor) vs response” equation based on the specific binding=total−non-specific binding.
Table 18. IC50 values were determined by competitive assays. […] The results are expressed as means standard deviation (SD) from a minimum of two separate experiments, each in triplicates.

Structure (SMILES)	tissue uptake at 4 h (in vivo; athymic nude Foxn1+Foxn1+, mouse, Biodistribution Adrenal)	tissue uptake at 4 h (in vivo; athymic nude Foxn1+Foxn1+, mouse, Biodistribution Blood)	tissue uptake at 4 h (in vivo; athymic nude Foxn1+Foxn1+, mouse, Biodistribution Heart)	tissue uptake at 4 h (in vivo; athymic nude Foxn1+Foxn1+, mouse, Biodistribution Intestine)	tissue uptake at 4 h (in vivo; athymic nude Foxn1+Foxn1+, mouse, Biodistribution Liver)	tissue uptake at 4 h (in vivo; athymic nude Foxn1+Foxn1+, mouse, Biodistribution Lung)	tissue uptake at 4 h (in vivo; athymic nude Foxn1+Foxn1+, mouse, Biodistribution Pancreas)	tissue uptake at 4 h (in vivo; athymic nude Foxn1+Foxn1+, mouse, Biodistribution Spleen)	tissue uptake at 4 h (in vivo; athymic nude Foxn1+Foxn1+, mouse, Biodistribution Stomach)	tissue uptake at 4 h (in vivo; athymic nude Foxn1, mouse, Biodistribution Bone)	tissue uptake at 4 h (in vivo; athymic nude Foxn1, mouse, Biodistribution Kidneys)	tissue uptake at 4 h (in vivo; athymic nude Foxn1, mouse, Biodistribution Muscle)	tissue uptake at 4 h (in vivo; athymic nude Foxn1, mouse, Biodistribution Pituitary)	tissue uptake at 4 h (in vivo; athymic nude Foxn1, mouse, Biodistribution SSTR2-tumor)	distribution pattern on PET/CT (HEK-SST2 xenografts)	Kd (SST2 [1])	logD [2]	IC50 (SST2 [3])
C[C@@H](O)[C@@H]1NC(=O)[C@H](CCCCN)NC(=O)[C@@H](Cc2ccc(NC(N)=O)cc2)NC(=O)[C@H](Cc2ccc(O)cc2)NC(=O)[C@H](NC(=O)[C@H](Cc2ccc(Cl)cc2)NC(=O)CCC(C(=O)O)N2CCN(CC(=O)O)CCN(CC(=O)O)CC2)CSSC[C@@H](C(=O)N[C@H](Cc2ccc(O)cc2)C(N)=O)NC1=O (stereo partly drawn) [[^61Cu]Cu-NODAGA-LM3, metal not drawn]	0.6 ± 0.15 %ID/g	0.11 ± 0.02 %ID/g	0.13 ± 0.02 %ID/g	0.43 ± 0.08 %ID/g	0.44 ± 0.06 %ID/g	0.32 ± 0.05 %ID/g	0.43 ± 0.12 %ID/g	0.14 ± 0.01 %ID/g	0.68 ± 0.15 %ID/g	0.31 ± 0.07 %ID/g	4.59 ± 0.41 %ID/g	0.06 ± 0.02 %ID/g	2.96 ± 0.62 %ID/g	20.4 ± 4.2 %ID/g	same distribution pattern	1.41 to 2.92 nM	-2.42 ± 0.04	
CC(O)C1NC(=O)C(CCCCN)NC(=O)C(Cc2ccc(NC(N)=O)cc2)NC(=O)C(Cc2ccc(O)cc2)NC(=O)C(NC(=O)C(Cc2ccc(Cl)cc2)NC(=O)CCC(C(=O)O)N2CCN(CC(=O)O)CCN(CC(=O)O)CC2)CSSCC(C(=O)NC(Cc2ccc(O)cc2)C(N)=O)NC1=O (stereo not drawn) [NODAGA-LM3]																		17.8 ± 2 nM
